# “Also recorded” adds a separate entry of the source.
# Tests used:
# [1] = molecular target: constitutive androstane receptor (CAR) (Homo sapiens, UniProt Q14994, DEL233-236); test: Nuclear receptor specificity luciferase reporter assay in HepG2 cells
# Procedure: (§1) For transient transfection, HepG2 cells were seeded at the density of 40,000 cells/cm^2. […] The next day, cells were challenged with tested ligands in indicated concentrations for 5 h. […] All the other transient transfection reporter gene assays were performed with Lipofectamine® 3000 (ThermoFisher Scientific). Briefly, cells were transfected with 150 ng/well luciferase reporter gene constructs (p(DR3)3-luc, SHP-luc, p3A4-luc, pTAT-(GRE)2-TK-luc, p2B6-luc, pGL4.35[luc2P⁄9XGAL4UAS⁄Hygro]), FXRE-luc together with 100 ng/well of the corresponding full-length fragment nuclear receptor expression vectors (pSG5-hVDR, pSG5-hFXR, pSG5-hRXRα, pSG5-hPXR, CAR3 variant) or the ligand binding domains of human, pCMX-GAL4-hFXR, pCMX-GA4L-LXRα, pCMX-GA4L-LXRα, pCMX-GA4L-TRα, pCMX-GA4L-PPARα, pCMX-GAL4-PPARγ, pCMX-GAL4-PPARδ) and 30 ng/well of pRL-TK Renilla luciferase vector 24 h prior to the treatment. […] The firefly luciferase activity was measured using the Dual Luciferase® Reporter Assay System (Promega) and normalized to Renilla luciferase activity. Experiments in an agonistic mode were performed with OCA, CDCA or tested compounds (all compounds at 10 μM). […] EC50 and IC50 were calculated using GraphPad PRISM ver. […]
# (§2) Data were normalized to Renilla luciferase activity and are expressed as fold activation relative to control (nontreated, NT) cells. […]
# vitamin D receptor (VDR) = vitamin D receptor (VDR) (Homo sapiens, UniProt P11473); test: as above
# Procedure: as §1, §2
# PPARγ = PPARγ (Homo sapiens, UniProt P37231); test: as above
# thyroid receptor (TRα) = thyroid receptor (TRα) (Homo sapiens, UniProt P10827); test: as above
# Sequence of thyroid receptor (TRα) (P10827 163-410 isoform P10827-2 limits assumed): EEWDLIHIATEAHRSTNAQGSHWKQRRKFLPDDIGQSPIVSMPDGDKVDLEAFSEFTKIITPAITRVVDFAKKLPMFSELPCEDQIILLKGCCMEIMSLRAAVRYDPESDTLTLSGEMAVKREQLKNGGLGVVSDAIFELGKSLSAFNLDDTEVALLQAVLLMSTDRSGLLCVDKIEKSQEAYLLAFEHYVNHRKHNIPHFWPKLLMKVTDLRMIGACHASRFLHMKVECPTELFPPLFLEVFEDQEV
# GLUTag cells [2] = test: GLP-1 secretion in siRNA control or Gpbar1 siRNA transfected GLUTag cells; assay type: cell-based, murine; settings: 10 µM, 1 h
# Procedure: GLUTag cells were transfected with non-targeting scrambled siRNA (siRNA control) or with the combination of siRNAs specific for Gpbar1 (Silencer® Select Pre-designed siRNA, LOT# ASO2HKN6 and ASO2HKN7, Life Technologies, Carlsbad, CA, United States) twice at 24 and 72 h after seeding using Lipofectamine RNAiMAX reagent (Life Technologies, Carlsbad, CA, United States). GLUTag cells were then treated with tested molecules at the day 4 post-seeding.
# FIGURE 8 Effects of 7-alkylated derivatives of CDCA and 7-ELCA on the membrane receptor GPBAR1. […] . (B) CRE-luc activation depends on the presence of GPBAR1. (C) Effects of LCA and 7-ELCA (both at 10 µM) on intracellular generation of cAMP in differentiated NCI-H716 cells after 30 min treatment. The increase in cAMP level (ΔcAMP) is presented as the difference between cAMP concertation in the treated sample after subtraction of the cAMP in the nontreated control sample. (D) Concentration-response curves for activation of GPBAR1 by LCA and 7-ELCA. EC50 values were calculated using nonlinear fitting of concentration-response curves. […] (G) 7-ELCA (10 µM) increases GLP-1 secretion in siRNA control but not in siRNA Gpbar1 transfected GLUTag cells after 1 h treatment. GLP-1 was normalized to protein concentration and GPBAR1 mRNA expression to GAPDH mRNA. Data are presented as a fold to control nontreated (NT) samples. […]
# GLUTag cells [3] = test: MTS viability assay; assay type: cell-based, murine; settings: Mus musculus, 24 h, read-out: IC50, cell viability
# Procedure: In addition, we examined the potential effect of 7-ethylidene-lithocholic acid (7-ELCA) on viability in murine colonic GLUTag cells. IC50 for 7-ELCA in the cell line remains above 200 µM.
# Figure S1. Cell viability in GluTag cells was determined using the Cell Titer 96 Aqueous One Solution Cell Proliferation Assay (Promega) after treatment with 7-ethylidene-lithocholic acid (7-ELCA) for 24 h. Vehicle (0.1% DMSO) and background (10% SDS; v/v, toxic control) controls of cell viability were set to be 100% and 0%, respectively. IC50 is greater than 200 µM.
# LXRβ = LXRβ (Homo sapiens, UniProt P55055); test: Nuclear receptor specificity luciferase reporter assay in HepG2 cells
# Sequence of LXRβ (P55055 222-460 limits assumed): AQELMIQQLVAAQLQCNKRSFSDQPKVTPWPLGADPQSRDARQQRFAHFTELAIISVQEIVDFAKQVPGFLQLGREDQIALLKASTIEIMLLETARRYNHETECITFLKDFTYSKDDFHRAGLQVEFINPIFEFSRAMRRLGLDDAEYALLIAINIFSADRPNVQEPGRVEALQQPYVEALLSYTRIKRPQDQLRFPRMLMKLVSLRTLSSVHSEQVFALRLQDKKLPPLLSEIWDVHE
# Procedure: as §1, §2
# PPARβ/δ = PPARβ/δ (Homo sapiens, UniProt Q03181); test: as above
# Sequence of PPARβ/δ (Q03181 211-439 limits assumed): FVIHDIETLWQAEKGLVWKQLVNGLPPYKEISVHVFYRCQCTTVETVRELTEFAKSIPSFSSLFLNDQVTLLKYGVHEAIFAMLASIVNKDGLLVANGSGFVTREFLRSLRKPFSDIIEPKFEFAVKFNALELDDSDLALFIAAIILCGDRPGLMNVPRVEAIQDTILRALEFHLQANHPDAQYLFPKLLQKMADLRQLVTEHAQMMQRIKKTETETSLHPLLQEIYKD
# Procedure: as §1, §2
# NCI-H716 cells = test: GLP-1 secretion (ELISA) in differentiated NCI-H716 cells; assay type: cell-based, human; settings: 10 µM, 2 h, listed as 7-ELCA
# [4] = molecular target: glucocorticoid receptor (GR) (Homo sapiens, UniProt P04150); test: Nuclear receptor specificity luciferase reporter assay in HepG2 cells
# Sequence of glucocorticoid receptor (GR) (P04150 whole entry): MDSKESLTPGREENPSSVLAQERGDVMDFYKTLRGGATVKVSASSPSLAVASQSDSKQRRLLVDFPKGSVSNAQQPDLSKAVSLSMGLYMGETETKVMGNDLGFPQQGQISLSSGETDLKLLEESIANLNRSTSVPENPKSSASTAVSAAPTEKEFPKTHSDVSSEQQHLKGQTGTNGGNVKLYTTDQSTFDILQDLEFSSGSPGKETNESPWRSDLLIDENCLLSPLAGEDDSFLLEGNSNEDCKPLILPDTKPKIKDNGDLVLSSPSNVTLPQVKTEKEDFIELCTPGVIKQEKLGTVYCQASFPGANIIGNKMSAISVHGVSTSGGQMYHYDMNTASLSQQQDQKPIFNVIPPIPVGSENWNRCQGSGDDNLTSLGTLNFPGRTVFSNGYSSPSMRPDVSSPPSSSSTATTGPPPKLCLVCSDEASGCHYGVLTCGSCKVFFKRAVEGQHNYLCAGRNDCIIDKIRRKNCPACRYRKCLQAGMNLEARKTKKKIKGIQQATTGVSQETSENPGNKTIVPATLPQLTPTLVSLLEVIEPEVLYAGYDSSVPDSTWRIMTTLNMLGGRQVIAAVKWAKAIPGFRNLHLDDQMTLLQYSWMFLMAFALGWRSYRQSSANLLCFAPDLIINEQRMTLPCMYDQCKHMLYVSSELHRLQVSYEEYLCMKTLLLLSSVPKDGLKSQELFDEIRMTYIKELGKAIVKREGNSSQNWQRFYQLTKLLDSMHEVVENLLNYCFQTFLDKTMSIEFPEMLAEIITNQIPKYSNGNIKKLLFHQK
# Procedure: as §1, §2
# [5] = tested on: GPBAR1 mRNA, NCI-H716 cells; test: GPBAR1 mRNA expression in differentiated NCI-H716 cells; assay type: cell-based, human; settings: 10 µM, 2 h
# Procedure: FIGURE 8 Effects of 7-alkylated derivatives of CDCA and 7-ELCA on the membrane receptor GPBAR1. […]. (B) CRE-luc activation depends on the presence of GPBAR1. (C) Effects of LCA and 7-ELCA (both at 10 µM) on intracellular generation of cAMP in differentiated NCI-H716 cells after 30 min treatment. The increase in cAMP level (ΔcAMP) is presented as the difference between cAMP concertation in the treated sample after subtraction of the cAMP in the nontreated control sample. (D) Concentration-response curves for activation of GPBAR1 by LCA and 7-ELCA. EC50 values were calculated using nonlinear fitting of concentration-response curves. […] (G) 7-ELCA (10 µM) increases GLP-1 secretion in siRNA control but not in siRNA Gpbar1 transfected GLUTag cells after 1 h treatment. GLP-1 was normalized to protein concentration and GPBAR1 mRNA expression to GAPDH mRNA. Data are presented as a fold to control nontreated (NT) samples. Forskolin (FSK, 10 µM) was used as a GPBAR1-independent activator of cAMP production.
# PPARα = PPARα (Homo sapiens, UniProt Q07869); test: Nuclear receptor specificity luciferase reporter assay in HepG2 cells
# Sequence of PPARα (Q07869 239-466 limits assumed): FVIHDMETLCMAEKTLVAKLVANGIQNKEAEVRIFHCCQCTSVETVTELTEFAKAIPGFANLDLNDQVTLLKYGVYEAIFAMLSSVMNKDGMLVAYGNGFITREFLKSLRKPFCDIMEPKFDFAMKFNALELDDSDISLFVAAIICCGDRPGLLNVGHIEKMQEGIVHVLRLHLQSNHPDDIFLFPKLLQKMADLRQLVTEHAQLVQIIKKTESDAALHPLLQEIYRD
# Procedure: as §1, §2
# Sequence of constitutive androstane receptor (CAR) (Q14994 with tags, fused parts or gaps isoform Q14994-8 DEL233-236): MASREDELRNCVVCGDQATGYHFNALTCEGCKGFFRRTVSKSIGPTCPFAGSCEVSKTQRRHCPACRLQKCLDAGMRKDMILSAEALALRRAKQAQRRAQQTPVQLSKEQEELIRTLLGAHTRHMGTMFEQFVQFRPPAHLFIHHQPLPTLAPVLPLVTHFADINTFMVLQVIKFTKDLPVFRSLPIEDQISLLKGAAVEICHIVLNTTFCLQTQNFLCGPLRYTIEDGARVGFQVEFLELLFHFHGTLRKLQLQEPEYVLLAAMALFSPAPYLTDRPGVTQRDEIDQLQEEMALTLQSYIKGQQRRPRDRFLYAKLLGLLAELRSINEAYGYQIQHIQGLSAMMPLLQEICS
# Sequence of constitutive androstane receptor (CAR) (P19793 whole entry partner): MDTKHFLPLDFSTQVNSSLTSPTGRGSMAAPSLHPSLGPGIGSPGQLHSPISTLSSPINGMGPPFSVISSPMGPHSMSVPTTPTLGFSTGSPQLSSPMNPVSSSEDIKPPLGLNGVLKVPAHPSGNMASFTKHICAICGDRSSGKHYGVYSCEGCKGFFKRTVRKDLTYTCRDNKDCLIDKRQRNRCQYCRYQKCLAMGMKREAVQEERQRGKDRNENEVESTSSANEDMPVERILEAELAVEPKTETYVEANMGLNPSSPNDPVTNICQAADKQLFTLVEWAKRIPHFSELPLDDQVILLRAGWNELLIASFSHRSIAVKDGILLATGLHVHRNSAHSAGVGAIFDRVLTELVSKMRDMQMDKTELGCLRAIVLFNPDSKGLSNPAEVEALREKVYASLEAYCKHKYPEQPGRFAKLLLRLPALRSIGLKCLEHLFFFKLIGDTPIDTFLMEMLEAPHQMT
# Sequence of vitamin D receptor (VDR) (P11473 whole entry): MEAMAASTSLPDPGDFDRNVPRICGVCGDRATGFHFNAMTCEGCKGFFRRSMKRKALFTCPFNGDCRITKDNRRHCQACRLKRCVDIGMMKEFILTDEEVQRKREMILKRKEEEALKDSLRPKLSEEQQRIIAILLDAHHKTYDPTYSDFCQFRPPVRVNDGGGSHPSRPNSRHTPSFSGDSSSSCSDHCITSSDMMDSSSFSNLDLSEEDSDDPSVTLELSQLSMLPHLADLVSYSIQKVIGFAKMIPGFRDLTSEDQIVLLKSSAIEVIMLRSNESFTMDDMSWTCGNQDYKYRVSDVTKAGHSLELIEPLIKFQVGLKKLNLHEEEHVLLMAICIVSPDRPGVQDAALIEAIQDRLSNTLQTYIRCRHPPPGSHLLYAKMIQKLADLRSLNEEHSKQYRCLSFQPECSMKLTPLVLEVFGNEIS
# Sequence of PPARγ (P37231 238-503 limits assumed): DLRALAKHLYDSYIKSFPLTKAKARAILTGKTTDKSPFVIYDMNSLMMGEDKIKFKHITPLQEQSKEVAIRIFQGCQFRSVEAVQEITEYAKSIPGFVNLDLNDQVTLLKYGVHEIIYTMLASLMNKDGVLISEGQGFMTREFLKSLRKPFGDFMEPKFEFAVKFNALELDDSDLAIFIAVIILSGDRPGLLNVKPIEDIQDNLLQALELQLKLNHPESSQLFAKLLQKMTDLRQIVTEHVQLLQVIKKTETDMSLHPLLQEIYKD
compound,measurement,setting,value
"C/C=C1\C[C@@H]2C[C@H](O)CC[C@]2(C)[C@H]2CC[C@]3(C)[C@@H]([C@H](C)CCC(=O)O)CC[C@H]3[C@H]12 [2a, (E)-3α-Hydroxy-7-ethylidene-5β-cholan-24-oic acid]",antagonism of CAR activation by model ligand,"[1]; 10 µM, with CITCO 1 µM",did not antagonize
same,activation of CAR,"[1]; agonistic assay, 24 h",did not activate
same,antagonism of VDR activation by model ligand,"vitamin D receptor (VDR); 10 µM, with 1α,25(OH)2vitaminD3 10 nM",did not antagonize
same,activation of VDR,"vitamin D receptor (VDR); agonistic assay, 24 h",did not activate
same,antagonism of PPARγ activation by model ligand,"PPARγ; 10 µM, with rosiglitazone 1 µM",did not antagonize
same,activation of PPARγ,"PPARγ; agonistic assay, 24 h",did not activate
same,antagonism of TRα activation by model ligand,"thyroid receptor (TRα); 10 µM, with thyroxin 1 µM",did not antagonize
same,activation of TRα,"thyroid receptor (TRα); agonistic assay, 24 h",did not activate
same,GLP-1 secretion,GLUTag cells [2]; Gpbar1 siRNA transfected GLUTag cells,did not lead to the significantly increased GLP-1 production
same,GLP-1 secretion,GLUTag cells [2]; siRNA control GLUTag cells,significant increase of the GLP-1 secretion
same,IC50,GLUTag cells [3],> 200 µM
same,antagonism of LXRβ activation by model ligand,"LXRβ; 10 µM, with GW3965 1 µM",did not antagonize
same,activation of LXRβ,"LXRβ; agonistic assay, 24 h",did not activate
same,antagonism of PPARβ/δ activation by model ligand,"PPARβ/δ; 10 µM, with GW501516 1 µM",did not antagonize
same,activation of PPARβ/δ,"PPARβ/δ; agonistic assay, 24 h",did not activate
same,GLP-1 secretion,NCI-H716 cells,significant increase of GLP-1 secretion; also recorded: significantly stronger compared to LCA
same,antagonism of GR activation by model ligand,"[4]; 10 µM, with dexamethasone 50 nM",did not antagonize
same,activation of GR,"[4]; agonistic assay, 24 h",did not activate
same,GPBAR1 mRNA expression,[5],increase GPBAR1 mRNA expression
same,antagonism of PPARα activation by model ligand,"PPARα; 10 µM, with fenofibrate 1 µM",did not antagonize
same,activation of PPARα,"PPARα; agonistic assay, 24 h",did not activate
